Values of other authors, collected in paper PMC2505184 (Bioconjugate chemistry, 2008).

O=C([O-])CN1CCCN(CC(=O)[O-])CCN(CC(=O)[O-])CCCN(CC(=O)[O-])CC1.[64Cu+2] [^64Cu-TETA]
in vitro serum stability: high in vitro serum stability
